Where a name gives a salt, the structure may show the parent alone.
Target: T1, human active recombinant p38α-6His tagged (Homo sapiens, UniProt Q16539)
T1 construct: 6His
Experiment: p38 Alpha Enzyme Assay (AlphaScreen, biotinylated-ATF2 substrate)
Type: biochemical
Conditions: pre-incubated 4 hours at 37° C., reaction initiated with ATP; 0.5 nM enzyme; read-out: p38 pIC50 (converted)
Protocol: The ability of the compounds of formula (I) to inhibit p38 kinase may be determined using the following biological assay:
Enzyme assays were performed in polypropylene 96 well plates. The following solutions were added to each well; 10 μL of compound dilutions in assay buffer (20 mM HEPES pH 7.4, containing 20 mM magnesium acetate, 0.005% (w/v) Tween-20, 10 mM DTT) containing 1% (v/v) DMSO or assay buffer containing 1% (v/v) DMSO alone, 70 μL of assay buffer containing 36 nM substrate (biotinylated-ATF2) and 10 μL of an appropriate dilution of human active recombinant p38α-6His tagged. Depending on batch of p38, an appropriate dilution was typically a 5 nM solution to give a final enzyme concentration of 0.5 nM. At this stage, background control wells also received 50 μL of AlphaScreen quench buffer (10 mM HEPES pH 7.4 containing 100 mM EDTA, 0.2% (w/v) bovine serum albumin). The plate was covered, pre-incubated for 4 hours at 37° C. and the enzyme reaction initiated by addition of 10 μL 1 mM ATP. After incubation for a further 45 minutes at 37° C., the reaction was stopped by addition of 50 μL quench reagent and 50 μL of the quenched reaction mixture transferred to an opaque, white 96-well plate. Detection reagent, 25 μL of 10 mM HEPES pH 7.4 containing 100 mM EDTA, 0.2% (w/v) bovine serum albumin, 0.3 nM anti phosphoATF2 antibody and 25 μg/mL of ‘AlphaScreen protein A acceptor and donor beads’ (PerkinElmer Inc.), was added to all wells in a darkened room, the plate sealed and left in the dark for at least 5 hours before AlphaScreen readings were taken using a Perkin Elmer EnVision reader. Total, uninhibited activity was determined from assays performed in each assay plate. The mean control in the absence of p38 activity was subtracted from each well. Data were expressed as percent inhibition of total activity using equation 1. Percent Inhibition=100*(1−Test/Control) Eq.1 Where . . . . • Test=p38 kinase activity in the presence of compound • Control=p38 kinase activity in the absence of compound.
pIC50 is defined as the logarithm of the reciprocal of the concentration of compound required for 50% reduction in total p38 kinase activity.

T1 sequence (Q16539 whole entry): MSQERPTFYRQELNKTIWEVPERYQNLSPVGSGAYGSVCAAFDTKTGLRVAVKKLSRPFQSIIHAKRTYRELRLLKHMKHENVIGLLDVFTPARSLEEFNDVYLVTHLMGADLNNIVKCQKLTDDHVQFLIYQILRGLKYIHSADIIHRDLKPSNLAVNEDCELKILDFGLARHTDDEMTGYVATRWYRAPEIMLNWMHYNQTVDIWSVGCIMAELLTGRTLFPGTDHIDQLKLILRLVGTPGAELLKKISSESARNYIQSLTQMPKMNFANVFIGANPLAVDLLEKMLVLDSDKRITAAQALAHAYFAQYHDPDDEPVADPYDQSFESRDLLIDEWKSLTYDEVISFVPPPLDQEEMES

SMILES | IC50
Cc1ccc(C(=O)NC2CC2)cc1-c1ccc2c(=O)n(CC3CC3)cc(C(=O)NC3CCN(C)CC3)c2c1 [Example 38, 6-(5-(Cyclopropylcarbamoyl)-2-methylphenyl)-2-(cyclopropylmethyl)-N-(1-methylpiperidin-4-yl)-1-oxo-1,2-dihydroisoquinoline-4-carboxamide] | 3.98 nM
CNCCN(C)Cc1cn(CC2CC2)c(=O)c2ccc(-c3cc(C(=O)NC4CC4)ccc3C)cc12 [Example 64, N-Cyclopropyl-3-(2-(cyclopropylmethyl)-4-((methyl(2-(methylamino)ethyl)amino)methyl)-1-oxo-1,2-dihydroisoquinolin-6-yl)-4-methylbenzamide] | 3.16 nM
Cc1ccc(C(=O)NC2CC2)cc1-c1ccc2c(=O)n(Cc3ccc(C4=CCNCC4)cc3)ccc2c1 [Example 7, N-Cyclopropyl-4-methyl-3-[1-oxo-2-{4-(1,2,3,6-tetrahydro-pyridin-4-yl)-benzyl}-1,2-dihydro-isoquinolin-6-yl]-benzamide, hydrochloride] | 0.398 nM
Cc1c(F)cc(C(=O)NC2CC2)cc1-c1ccc2c(=O)n(CC3CC3)cc(CN3CCN(CCO)CC3)c2c1 [Example 90, N-Cyclopropyl-3-(2-(cyclopropylmethyl)-4-((4-(2-hydroxyethyl)piperazin-1-yl)methyl)-1-oxo-1,2-dihydroisoquinolin-6-yl)-5-fluoro-4-methylbenzamide] | 0.158 nM
Cc1c(F)cc(C(=O)NC2CC2)cc1-c1ccc2c(=O)n(Cc3ccc(S(C)(=O)=O)cc3)cc(CN3CCN(C)[C@@H](CO)C3)c2c1 [Example 115] | 0.1 nM
Cc1ccc(C(=O)NC2CC2)cc1-c1ccc2c(=O)n(Cc3ccc(CN(C)C)cc3)ccc2c1 [Example 14, N-Cyclopropyl-3-[2-(4-dimethylaminomethyl-benzyl)-1-oxo-1,2-dihydro-isoquinolin-6-yl]-4-methyl-benzamide] | 2.51 nM
Cc1ccc(C(=O)NC2CC2)cc1-c1ccc2c(=O)n(Cc3ccccc3)cc(C(=O)NCCN3CCCC3)c2c1 [Example 49, 2-Benzyl-6-{5-[(cyclopropylamino)carbonyl]-2-methylphenyl}-1-oxo-N-(2-pyrrolidin-1-ylethyl)-1,2-dihydroisoquinoline-4-carboxamide] | 3.16 nM
Cc1ccc(C(=O)NC2CC2)cc1-c1ccc2c(=O)n(Cc3ccc(C(=O)N4CCN(C)CC4)cc3)ccc2c1 [Example 20, N-Cyclopropyl-4-methyl-3-(2-(4-(4-methylpiperazine-1-carbonyl)benzyl)-1-oxo-1,2-dihydroisoquinolin-6-yl)benzamide] | 1.26 nM
CN[C@@H]1CCN(Cc2cn(CC3CC3)c(=O)c3ccc(-c4cc(C(=O)NC5CC5)cc(F)c4C)cc23)C1 [Example 106, (R)—N-Cyclopropyl-3-(2-(cyclopropylmethyl)-4-((3-(methylamino)pyrrolidin-1-yl)methyl)-1-oxo-1,2-dihydroisoquinolin-6-yl)-5-fluoro-4-methylbenzamide] | 0.316 nM
Cc1ccc(C(=O)NC2CC2)cc1-c1ccc2c(=O)n(Cc3cccc(OCCN4CCCC4)c3)ccc2c1 [Example 33, N-Cyclopropyl-4-methyl-3-{1-oxo-2-[3-(2-pyrrolidin-1-ylethoxy)benzyl]-1,2-dihydroisoquinolin-6-yl}benzamide] | 2 nM
Cc1c(F)cc(C(=O)NC2CC2)cc1-c1ccc2c(=O)n(CC3CC3)cc(CN3CC[C@@H](N)C3)c2c1 [Example 109, (R)-3-(4-((3-Aminopyrrolidin-1-yl)methyl)-2-(cyclopropylmethyl)-1-oxo-1,2-dihydroisoquinolin-6-yl)-N-cyclopropyl-5-fluoro-4-methylbenzamide] | 1.58 nM
Cc1ccc(C(=O)NC2CC2)cc1-c1ccc2c(=O)n(Cc3ccc(C(=O)O)cc3)cc(CN3CCCN(C)CC3)c2c1 [Example 104, 4-((6-(5-(Cyclopropylcarbamoyl)-2-methylphenyl)-((4-methyl-1,4-diazepan-1-yl)methyl)-1-oxoisoquinolin-2(1H)-yl)methyl)benzoic acid] | 0.2 nM
Cc1ccc(C(=O)NC2CC2)cc1-c1ccc2c(=O)n(CC3CC3)cc(C(=O)N3CCC(N(C)C)CC3)c2c1 [Example 45, N-Cyclopropyl-3-(2-(cyclopropylmethyl)-(4-(dimethylamino)piperidine-1-carbonyl)-1-oxo-1,2-dihydroisoquinolin-6-yl)-4-methylbenzamide] | 2.51 nM
Cc1c(F)cc(C(=O)NC2CC2)cc1-c1ccc2c(=O)n(CC3CC3)cc(CN3CCN[C@@H](C)C3)c2c1 [Example 82, (S)—N-Cyclopropyl-3-(2-(cyclopropylmethyl)-4-((3-methylpiperazin-1-yl)methyl)-1-oxo-1,2-dihydroisoquinolin-6-yl)-5-fluoro-4-methylbenzamide] | 0.1 nM
Cc1ccc(C(=O)NC2CC2)cc1-c1ccc2c(=O)n(Cc3ccc(CN(C)C(C)(C)C)cc3)ccc2c1 [Example 27, 3-(2-(4-((Tert-butyl(methyl)amino)methyl)benzyl)-1-oxo-1,2-dihydroisoquinolin-6-yl)-N-cyclopropyl-4-methylbenzamide] | 1 nM
Cc1ccc(C(=O)NC2CC2)cc1-c1ccc2c(=O)n(CC3CC3)cc(COCCN(C)C)c2c1 [Example 101, N-Cyclopropyl-3-(2-(cyclopropylmethyl)-4-((2-(dimethylamino)ethoxy)methyl)-1-oxo-1,2-dihydroisoquinolin-6-yl)-4-methylbenzamide] | 3.16 nM
Cc1ccc(C(=O)NC2CC2)cc1-c1ccc2c(=O)n(Cc3ccccc3)ccc2c1 [Example 1, 3-(2-Benzyl-1-oxo-1,2-dihydro-isoquinolin-6-yl)-N-cyclopropyl-4-methyl-benzamide] | 0.794 nM
Cc1ccc(C(=O)NC2CC2)cc1-c1ccc2c(=O)n(CC3CC3)cc(CN3CCC(N4CCCCC4)CC3)c2c1 [Example 62, 3-(4-(1,4′-Bipiperidin-1′-ylmethyl)-2-(cyclopropylmethyl)-1-oxo-1,2-dihydroisoquinolin-6-yl)-N-cyclopropyl-4-methylbenzamide] | 5.01 nM
Cc1ccc(C(=O)NC2CC2)cc1-c1ccc2c(=O)n(Cc3ccc(OCCCN(C)C)nc3)ccc2c1 [Example 29, N-Cyclopropyl-3-(2-((6-(3-(dimethylamino)propoxy)pyridin-3-yl)methyl)-1-oxo-1,2-dihydroisoquinolin-6-yl)-4-methylbenzamide] | 1.58 nM
Cc1c(F)cc(C(=O)NC2CC2)cc1-c1ccc2c(=O)n(CC3CC3)cc(CN3CCNC(CO)CC3)c2c1 (centres unmarked) [Example 127, N-Cyclopropyl-3-[2-cyclopropylmethyl-4-(5-hydroxymethyl-[1,4]diazepan-1-ylmethyl)-1-oxo-1,2-dihydro-isoquinolin-6-yl]-5-fluoro-4-methyl-benzamide] | 0.158 nM
Cc1c(F)cc(C(=O)NC2CC2)cc1-c1ccc2c(=O)n(CC3CC3)cc(CN3CCN(C)[C@@H](CO)C3)c2c1 [Example 87, (R)—N-Cyclopropyl-3-(2-(cyclopropylmethyl)-4-((3-(hydroxymethyl)-4-methylpiperazin-1-yl)methyl)-1-oxo-1,2-dihydroisoquinolin-6-yl)-5-fluoro-4-methylbenzamide] | 0.0631 nM
Cc1ccc(C(=O)NC2CC2)cc1-c1ccc2c(=O)n(Cc3ccccc3)cc(C(=O)N3CC[C@@H](N)C3)c2c1 [Example 53, (R)-3-(4-(3-Aminopyrrolidine-1-carbonyl)-2-benzyl-1-oxo-1,2-dihydroisoquinolin-6-yl)-N-cyclopropyl-4-methylbenzamide] | 2 nM
Cc1ccc(C(=O)NC2CC2)cc1-c1ccc2c(=O)n(Cc3cccc(CN(C)C)c3)ccc2c1 [Example 15, N-Cyclopropyl-3-[2-(3-dimethylaminomethyl-benzyl)-1-oxo-1,2-dihydro-isoquinolin-6-yl]-4-methyl-benzamide] | 3.16 nM
Cc1ccc(C(=O)NC2CC2)cc1-c1ccc2c(=O)n(Cc3ccc(CN4CCN(C)CC4)cc3)ccc2c1 [Example 26, N-Cyclopropyl-4-methyl-3-(2-(4-((4-methylpiperazin-1-yl)methyl)benzyl)-1-oxo-1,2-dihydroisoquinolin-6-yl)benzamide] | 3.16 nM
CNC1CCN(Cc2cn(CC3CC3)c(=O)c3ccc(-c4cc(C(=O)NC5CC5)cc(F)c4C)cc23)CC1 [Example 81, N-Cyclopropyl-3-(2-(cyclopropylmethyl)-4-((4-(methylamino)piperidin-1-yl)methyl)-1-oxo-1,2-dihydroisoquinolin-6-yl)-5-fluoro-4-methylbenzamide] | 0.1 nM
Cc1ccc(C(=O)NC2CC2)cc1-c1ccc2c(=O)n(Cc3ccc(S(C)(=O)=O)cc3)ccc2c1 [Example 5, N-Cyclopropyl-3-[2-(4-methanesulfonyl-benzyl)-1-oxo-1,2-dihydro-isoquinolin-6-yl]-4-methyl-benzamide] | 3.16 nM
